“And” between values parts separate entries of the source, which are not always exact repeats. Equal entries are not always repeated.
What was measured:
[1] = test system: IL-8; assay: IL1-α-induced IL-8 production in normal human dermal fibroblasts (ELISA); type: cell-based
Experimental: There is evidence that C. acnes is involved in invoking an inflammatory response. […] Therefore, the effect of the G2 dendrimer on inflammation in normal human dermis fibroblasts (NHDF) was assessed. NHDF were isolated from human dermis and maintained in DMEM containing 10% fetal calf serum, 1% antibiotics (penicillin/streptomycin) and 1% L-glutamine at 37° C. under 5% CO2 and 95% humidity.
IL-8 mediates inflammatory reactions in the skin through the recruitment of neutrophils and other immune cells to invade injured or inflamed tissue. IL-8 secretion is inducible in cultured human dermal fibroblasts following activation with the pro-inflammatory cytokine IL-la (Larsen, et al. (1989) Immunology 68(1):31-6). Accordingly, non-confluent NHDF cells were treated with IL1-α (0.1 ng/mL), as an inducer of IL-8 production, in the presence or absence of G2 dendrimer (10^−9M, 10^−8M, 10^−7M or 10^−6 M) or hydrocortisone (0.05 μg/mL) as the positive anti-inflammatory control. IL-8 release from fibroblasts was determined by enzyme-linked immunosorbent assay (ELISA).

[2] = test system: C. acnes strain IP 53117T; assay: Inhibition of C. acnes growth in culture (MIC, 96-well plates); type: cell-based, Cutibacterium acnes; conditions: C. acnes strain IP 53117T (phylotype IA1); 24 to 48 hours at 37° C.
Experimental: The effectiveness of G2 dendrimer for inhibiting the growth of C. acnes in culture was assessed. G2 dendrimer was used at a final concentration ranging between 10^−2 M and 10^−5M. Experiments were performed using C. acnes strain IP 53117T (see FR2844715 A1), a strain known to cause acne. This strain belongs to a ribotype 1 (RT1) from phylotype 1A1 and is thus an acneic strain.
Bacteria (10^8 CFU/ml) were inoculated in 96-well plates containing a range of G2 dendrimer concentrations.

[3] = test system: adhesion of tritium-labeled C. acnes IP 53117T to keratinocytes (NCTC 2544); assay: C. acnes adhesion to keratinocytes, Method 1 (concomitant, 2 hours); type: cell-based, Cutibacterium acnes; conditions: after 2 hours, vs absence of G2 dendrimer
Experimental: (§1) Keratinocytes were isolated from the human epithelial cell line NCTC 2544 (Neufahrt, et al. (1978) Arch. Dermaol. Res. 256(3):255-60). Culture were maintained with Dulbecco's modified Eagle's medium (DMEM) containing 10% fetal calf serum, 1% antibiotics (penicillin/streptomycin), and 1% L-glutamine at 37° C. under 5% CO2 and 95% humidity.
To monitor bacterial adhesion, adenine of the IP 53117T bacterial strain (belonging to acneic phylotype IA1) was labeled with tritium and bacterial adhesion to the surface of keratinocytes was determined by counting the radioactivity. • Method 1. […] After incubation for 2 hours (37° C., 5% CO2), cells were washed with phosphate-buffered saline (PBS) to remove non-adherent bacteria. • Method 2. The keratinocytes were pretreated for 24 hours with the G2 dendrimer. Labeled bacteria (2×10^8 microorganisms/mL) was then added to the cell monolayer for 2 hours without prior removal of the G2 dendrimer.

[4] = test system: adhesion of tritium-labeled C. acnes IP 53117T to keratinocytes (NCTC 2544); assay: C. acnes adhesion to keratinocytes, Method 2 (24-hour pretreatment); type: cell-based, Cutibacterium acnes
Experimental: as §1
To monitor bacterial adhesion, adenine of the IP 53117T bacterial strain (belonging to acneic phylotype IA1) was labeled with tritium and bacterial adhesion to the surface of keratinocytes was determined by counting the radioactivity. • Method 1. Labeled bacteria (2×10^8 microorganisms/mL) were combined with varying amounts of G2 dendrimer (final concentration between 10^−5M and 6.25×10^−6 M) and deposited on the surface of a monolayer of keratinocytes. After incubation for 2 hours (37° C., 5% CO2), cells were washed with phosphate-buffered saline (PBS) to remove non-adherent bacteria. • Method 2. The keratinocytes were pretreated for 24 hours with the G2 dendrimer. Labeled bacteria (2×10^8 microorganisms/mL) was then added to the cell monolayer for 2 hours without prior removal of the G2 dendrimer.

[5] = test system: stratum corneum of human skin explants; assay: Keratolytic effect in human skin explants exposed to C. acnes; type: cell-based; conditions: explants at day 8
Experimental: (§2) Skin Treatment. Fifteen human skin specimens were obtained from patients undergoing plastic surgery (Caucasian women, 26 years old). Skin explants were maintained in culture for 8 days. A 1-hour treatment with G2 dendrimer (2 and 5 ppm) was concomitant with application of freeze-dried C. acnes (30 μL) at days 0, 1, 4 and 6 (FIG. 2). At day 8, explants were fixed and embedded in paraffin. Thick sections of 5 μm were stained with Masson's Trichrome stain or an anti-TLR2 antibody.
Evaluation of Keratolytic Effect. The general morphology and in particular stratum corneum of the explants were analyzed. Images were taken with a Leica Orthoplan microscope equipped with a digital camera (tri-CCD) driven by the acquisition and archiving software Leica IM1000.

[6] = test system: TLR2; assay: TLR2 immunostaining in human skin explants challenged with C. acnes; type: cell-based; conditions: topical application at 2 and 5 ppm
Experimental: as §2
Immunostaining of TLR2 TLR2 is known to mediate the inflammatory response of skin to acne (Kim, et al. (2002) 1 Immunol. 169(3):1535-41; McInturff & Kim (2005) Semin. Cutan. Med. Surg. 24(2):73-8). Accordingly, TLR2 protein in frozen sections was assessed with an anti-TLR2 (clone TL2.1; Santa Cruz). Sections were incubated with a 1:25 dilution of the anti-TLR2 antibody overnight at 4° C. and antibody binding was subsequently detected with biotin/streptavidin-FITC conjugate. Nuclei were stained with propidium iodide.

[7] = test system: IL1-α; assay: IL1-α quantification in culture media of human skin explants (ELISA); type: cell-based
Experimental: as §2
Quantification of IL1-α Cytokine. The concentration of IL1-α in the culture media was determined using an ELISA assay kit (Cayman, Ann Arbor, MI). The absorbances were measured using a microplate reader Tecan Infinite M200 Pro, combined with Magellan's software.

[8] = test system: C. acnes acneic strain RT4 (phylotype IA1); assay: Membrane fluidity of C. acnes strain RT4; type: cell-based, Cutibacterium acnes; conditions: 6·10^−6M, 72 h of incubation
[9] = test system: C. acnes acneic strain RT5 (phylotype IA1); assay: Membrane fluidity of C. acnes strain RT5; type: cell-based, Cutibacterium acnes; conditions: 6·10^−6M, 72 h of incubation
[10] = test system: C. acnes non-acneic strain RT6 (phylotype II); assay: Membrane fluidity of C. acnes strain RT6; type: cell-based, Cutibacterium acnes; conditions: 6·10^−6 M, 72 h of incubation
Experimental: The impact of G2 dendrimer on the membrane fluidity of three bacterial strains of Cutibacterium acnes was tested. Two of the tested strains of C. acnes are “acneic” strains belonging to phylotype IA1 (RT4 and RT5) while the last one is a non-acneic strain (RT6) belonging to phylotype II. Several colonies of RT4, RT5 and RT6 (C. acnes strains) were scrapped and put in reinforced clostridial medium (RMC medium). The tubes were vortexed few seconds and homogenized before to be completely filled out with RMC in order to create anaerobic state. The tubes were then incubated at 37° C. for at least 48 h.
Bacterial cultures were collected and the OD was taken at 580 nm. After inoculation, the bacteria were sending in microplate and treated or not with G2 dendrimer. After 2 hours in anaerobic chamber, the plate was transferred in microplate reader for 72 h (OD 580 nm with measurement every 30 min). Then, the generation time of the bacteria was analyzed for each C. acnes strains. The G2 Dendrimer was tested at the following concentrations: 6·10^−6M, and 6·10^−7M.

[11] = test system: Cutibacterium acnes acneic strain ribotype 5 (RT5) HL043PA2/HM-514; assay: Biofilm formation on glass slide, strain RT5; type: cell-based; conditions: 72 h biofilm
Experimental: (§3) The Cutibacterium acnes acneic strain ribotype 5 (RT5) HL043PA2/HM-514 and the Cutibacterium acnes non-acneic strain ribotype 6 (RT6) HL110PA3/HM-554 were obtained from BEI Resources American Type Culture Collection (Virginia, United States). These two strains belong to the phylotypes IA1 and II, respectively (McDowell, 2017). Bacteria, stored at −80° C., were initially plated on brain-heart infusion (BHI, BD) agar plates for RT6 strain and on reinforced clostridial medium (RCM) agar plates for RT5 strain, and were incubated under anoxic conditions at 37° C. using a BD GasPack™ System. Colonies were transferred into sterile conical 15-mL tubes (Falcon) containing 12 ml of RCM and after vortexing for homogenization, the falcon tube is completely filled with RCM medium and incubated for 72 h at 37° C. […]
(§4) After 72 h (biofilm formation), the RCM medium was carefully removed in each well in order to remove planktonic cells. […] Syto 9 was excited at 488 nm and fluorescence emission was detected from 500 to 550 nm. […] Quantitative analyses of images stacks were performed using the COMSTAT software (see Worldwide Website: imageanalysis.dk/) (Heydorn et al., 2000). Maximal and average biofilm thickness (μm) and their biomass volume (μm^3/μm^2) were determined. […]

[12] = test system: Cutibacterium acnes non-acneic strain ribotype 6 (RT6) HL110PA3/HM-554; assay: Biofilm formation on glass slide, strain RT6; type: cell-based; conditions: 72 h biofilm
Experimental: as §3, §4

[13] = test system: C. acnes; assay: Inhibition of C. acnes proliferation, comparison with linear polylysine; type: cell-based, Cutibacterium acnes
[14] = Anti-inflammatory effect, comparison with linear polylysine

## C[C@]12CCC(=O)C=C1CC[C@@H]1[C@@H]2[C@@H](O)C[C@@]2(C)[C@H]1CC[C@]2(O)C(=O)CO [hydrocortisone, reference compound]
[1]; NHDF, IL1-α 0.1 ng/mL, hydrocortisone 0.05 μg/mL
  decrease of IL-8 production: 83%

## poly(L-lysine) G2 [G2 dendrimer]
[2]
  MIC (minimum inhibitory concentration): 10-20 ppm and 20 ppm
[3]; 2.5×10^−7 M
  inhibition of adhesion of C. acnes on keratinocyte surfaces: 29%
[3]; 5×10^−6 M
  inhibition of adhesion of C. acnes on keratinocyte surfaces: 40%
[3]; 10^−5 M
  inhibition of adhesion of C. acnes on keratinocyte surfaces: 50%
[4]; 2.5×10^−6 M
  inhibition of adhesion of C. acnes on keratinocyte surfaces: 35%
[4]; 5×10^−6 M
  inhibition of adhesion of C. acnes on keratinocyte surfaces: 51%
[4]; 10^−5M
  inhibition of adhesion of C. acnes on keratinocyte surfaces: 50%
[1]; dermal fibroblasts in vitro
  management of IL-8 production following IL1-α stimulation, acetate vs chloride or carbonate counter-anions: more effective
[5]; 2 ppm topical
  keratolytic effect (morphology of stratum corneum): moderate separation of the upper layers of the stratum corneum
[5]; 5 ppm topical
  keratolytic effect (morphology of stratum corneum): lower detachment
[6]
  TLR2 overexpression induced by C. acnes: complete inhibition
[7]; 2 ppm, day 1
  decrease in IL1-α production compared to treatment with C. acnes: 49%
[7]; 2 ppm, day 4
  decrease in IL1-α production compared to treatment with C. acnes: 28%
[7]; 5 ppm, day 1
  decrease in IL1-α production compared to treatment with C. acnes: 42%
[7]; 5 ppm, day 4
  decrease in IL1-α production compared to treatment with C. acnes: 27%
[8]
  membrane rigidity (membrane fluidity) vs control: significantly decreased
[9]
  membrane rigidity (membrane fluidity) vs control: significantly decreased
[10]
  membrane rigidity (membrane fluidity) vs control: does not exhibit any significant effect
[11]
  change in biomass density in the biofilm: −50%
  change in thickness of the biofilm: −48%
[12]
  biomass density in the biofilm: no effect
  change in thickness of the biofilm: −32%
[13]
  inhibition of C. acnes proliferation compared with linear polylysine: more effective than linear polylysine
[14]
  anti-inflammatory effect compared with linear polylysine: more effective than linear polylysine
